Reference: patent US20220249441A1, “Homodimeric Tobramycin Adjuvant Repurposes Novobiocin as an Effective Antibacterial Agent Against Gram-Negative Bacteria” (priority 2019, published 2022)

Assays:
P. aeruginosa = assay: Checkerboard assay (antibiotic + adjuvant combination MIC); type: cell-based, Pseudomonas aeruginosa
Method: Antimicrobial Susceptibility Assay. The in vitro antimicrobial activity of all compounds/antibiotics against a panel of bacteria was evaluated by microbroth dilution method in accordance with the Clinical and Laboratory Standards Institute (CLSI) guidelines (using ATCC strains as quality control strains) (54). Overnight grown bacterial cultures were diluted in saline to achieve a 0.5 McFarland turbidity, followed by 1:50 dilution in Mueller-Hinton broth (MHB) for inoculation to a final concentration of approximately 5×10^5 CFU/mL. […] The lowest concentration that prevented the visible growth of bacteria was defined as the MIC for each antimicrobial agent. The broth with or without bacterial cells was used as positive or negative control, respectively.
Checkerboard Assay. Combination studies with different antibiotics were performed in 96-well plates as previously described (19). Briefly, the antibiotic of interest was serially diluted in MHB along the abscissa while the adjuvant (tobramycin homodimer) was serially diluted in MHB along the ordinate. This creates a 10×7 matrices wherein each well consists of a combination of different antibiotic and adjuvant concentrations. Overnight grown bacterial cultures were diluted in saline to achieve a 0.5 McFarland turbidity, followed by 1:50 dilution in Mueller-Hinton broth (MHB) for inoculation to a final concentration of approximately 5×10^5 CFU/mL. […] MIC was recorded as wells with the lowest concentration of drugs with no bacterial growth. The fractional inhibitory concentration (FIC) for each antibiotic was calculated by dividing the MIC of the antibiotic in the presence of adjuvant by the MIC of the antibiotic alone. Similarly, the FIC of adjuvant was calculated by dividing the MIC of the adjuvant in the presence of antibiotic by the MIC of the adjuvant alone. FIC index is the sum of both FICs. FIC indices of ≤0.5 were deemed synergistic; >0.5-4, no interaction; and >4, antagonistic.

[1] = system: P. aeruginosa PAO1 and efflux deficient mutants, MDR/XDR isolates; assay: microbe, parasite or virus in culture; type: cell-based, Pseudomonas aeruginosa
Method: Antimicrobial Susceptibility Assay. The in vitro antimicrobial activity of all compounds/antibiotics against a panel of bacteria was evaluated by microbroth dilution method in accordance with the Clinical and Laboratory Standards Institute (CLSI) guidelines (using ATCC strains as quality control strains) (54). […] The broth with or without bacterial cells was used as positive or negative control, respectively.

[2] = P. aeruginosa PAO1, compound at 8 μM
[3] = PA 262-101856, compound at 8 μM
[4] = PA 264-104354, compound at 8 μM
[5] = PA O200 (efflux-deficient), compound at 8 μM
[6] = PA O750 (efflux-deficient), compound at 8 μM

Structure (SMILES): NC[C@H]1O[C@H](O[C@H]2[C@H](OCCCCc3cn(CCCCO[C@@H]4[C@@H](O[C@H]5O[C@H](CO)[C@@H](O)[C@H](N)[C@H]5O)[C@H](N)C[C@H](N)[C@H]4O[C@H]4O[C@H](CN)[C@@H](O)C[C@H]4N)nn3)[C@@H](O[C@H]3O[C@H](CO)[C@@H](O)[C@H](N)[C@H]3O)[C@H](N)C[C@@H]2N)[C@H](N)C[C@@H]1O.O=C(O)C(F)(F)F.O=C(O)C(F)(F)F.O=C(O)C(F)(F)F.O=C(O)C(F)(F)F.O=C(O)C(F)(F)F.O=C(O)C(F)(F)F.O=C(O)C(F)(F)F.O=C(O)C(F)(F)F.O=C(O)C(F)(F)F.O=C(O)C(F)(F)F [Compound 23, Tobramycin homodimer]
- MIC of Aztreonam + compound (P. aeruginosa; [2]): 0.25 µg/mL
- MIC of Ceftazidime + compound (P. aeruginosa; [2]): 0.25 µg/mL
- MIC of Imipenem + compound (P. aeruginosa; [2]): 1 µg/mL
- MIC of Piperacillin + compound (P. aeruginosa; [2]): 0.5 µg/mL
- MIC of ATM in the presence of compound (P. aeruginosa; PA 259-96918, compound at 8 μM): 8 µg/mL
- MIC of CAZ in the presence of compound (P. aeruginosa; PA 259-96918, compound at 8 μM): 128 µg/mL
- MIC of IPM in the presence of compound (P. aeruginosa; PA 259-96918, compound at 8 μM): 32 µg/mL
- MIC of ATM in the presence of compound (P. aeruginosa; PA 260-97103, compound at 8 μM): 16 µg/mL
- MIC of CAZ in the presence of compound (P. aeruginosa; PA 260-97103, compound at 8 μM): 8 µg/mL
- MIC of IPM in the presence of compound (P. aeruginosa; PA 260-97103, compound at 8 μM): 16 µg/mL
- MIC of ATM in the presence of compound (P. aeruginosa; [3]): 8 µg/mL
- MIC of CAZ in the presence of compound (P. aeruginosa; [3]): 2 µg/mL
- MIC of IPM in the presence of compound (P. aeruginosa; [3]): 2 µg/mL
- MIC of ATM in the presence of compound (P. aeruginosa; [4]): 8 µg/mL
- MIC of CAZ in the presence of compound (P. aeruginosa; [4]): 32 µg/mL
- MIC of IPM in the presence of compound (P. aeruginosa; [4]): 4 µg/mL
- MIC of ATM in the presence of compound (P. aeruginosa; PA 86052, compound at 8 μM): 8 µg/mL
- MIC of CAZ in the presence of compound (P. aeruginosa; PA 86052, compound at 8 μM): 64 µg/mL
- MIC of IPM in the presence of compound (P. aeruginosa; PA 86052, compound at 8 μM): 16 µg/mL
- MIC of ATM in the presence of compound (P. aeruginosa; PA 88949, compound at 8 μM): 32 µg/mL
- MIC of CAZ in the presence of compound (P. aeruginosa; PA 88949, compound at 8 μM): 16 µg/mL
- MIC of IPM in the presence of compound (P. aeruginosa; PA 88949, compound at 8 μM): 4 µg/mL
- MIC of ATM in the presence of compound (P. aeruginosa; PA 91433, compound at 8 μM): 4 µg/mL
- MIC of CAZ in the presence of compound (P. aeruginosa; PA 91433, compound at 8 μM): 1 µg/mL
- MIC of IPM in the presence of compound (P. aeruginosa; PA 91433, compound at 8 μM): 4 µg/mL
- MIC of ATM in the presence of compound (P. aeruginosa; PA 100036, compound at 8 μM): 2 µg/mL
- MIC of CAZ in the presence of compound (P. aeruginosa; PA 100036, compound at 8 μM): 2 µg/mL
- MIC of IPM in the presence of compound (P. aeruginosa; PA 100036, compound at 8 μM): 4 µg/mL
- MIC of ATM in the presence of compound (P. aeruginosa; PA 101243, compound at 8 μM): 16 µg/mL
- MIC of CAZ in the presence of compound (P. aeruginosa; PA 101243, compound at 8 μM): 64 µg/mL
- MIC of IPM in the presence of compound (P. aeruginosa; PA 101243, compound at 8 μM): 8 µg/mL
- MIC of ATM in the presence of compound (P. aeruginosa; PA 101885, compound at 8 μM): 4 µg/mL
- MIC of CAZ in the presence of compound (P. aeruginosa; PA 101885, compound at 8 μM): 2 µg/mL
- MIC of IPM in the presence of compound (P. aeruginosa; PA 101885, compound at 8 μM): 4 µg/mL
- MIC of ATM in the presence of compound (P. aeruginosa; PA 107092, compound at 8 μM): 16 µg/mL
- MIC of CAZ in the presence of compound (P. aeruginosa; PA 107092, compound at 8 μM): 32 µg/mL
- MIC of IPM in the presence of compound (P. aeruginosa; PA 107092, compound at 8 μM): 16 µg/mL
- MIC of ATM in the presence of compound (P. aeruginosa; PA 108590, compound at 8 μM): 8 µg/mL
- MIC of CAZ in the presence of compound (P. aeruginosa; PA 108590, compound at 8 μM): 8 µg/mL
- MIC of IPM in the presence of compound (P. aeruginosa; PA 108590, compound at 8 μM): 4 µg/mL
- MIC of ATM in the presence of compound (P. aeruginosa; PA 109084, compound at 8 μM): 8 µg/mL
- MIC of CAZ in the presence of compound (P. aeruginosa; PA 109084, compound at 8 μM): 32 µg/mL
- MIC of IPM in the presence of compound (P. aeruginosa; PA 109084, compound at 8 μM): 8 µg/mL
- MIC of ATM in the presence of compound (P. aeruginosa; PA 114228, compound at 8 μM): 4 µg/mL
- MIC of CAZ in the presence of compound (P. aeruginosa; PA 114228, compound at 8 μM): 1 µg/mL
- MIC of IPM in the presence of compound (P. aeruginosa; PA 114228, compound at 8 μM): 0.5 µg/mL
- MIC of ATM in the presence of compound (P. aeruginosa; [5]): 0.03 µg/mL
- MIC of CAZ in the presence of compound (P. aeruginosa; [5]): 0.13 µg/mL
- MIC of IPM in the presence of compound (P. aeruginosa; [5]): 1 µg/mL
- MIC of ATM in the presence of compound (P. aeruginosa; [6]): 0.06 µg/mL
- MIC of CAZ in the presence of compound (P. aeruginosa; [6]): 0.06 µg/mL
- MIC of IPM in the presence of compound (P. aeruginosa; [6]): 1 µg/mL
- MIC of ATM in the presence of compound (P. aeruginosa; PAO1, compound at 8 μM): 0.25 µg/mL
- MIC of CAZ in the presence of compound (P. aeruginosa; PAO1, compound at 8 μM): 0.25 µg/mL
- MIC of IPM in the presence of compound (P. aeruginosa; PAO1, compound at 8 μM): 1 µg/mL
- resistant isolates in which CLSI breakpoint was attained for aztreonam (P. aeruginosa; compound at 8 μM): eleven out of thirteen
- resistant isolates in which CLSI breakpoint was attained for ceftazidime (P. aeruginosa; compound at 8 μM): four out of eleven
- resistant isolates in which CLSI breakpoint was attained for imipenem (P. aeruginosa; compound at 8 μM): five out of seventeen
- MIC ([1]; PAO1 (wild-type)): >128 µg/mL
- MIC ([1]; PAO200 (first column so headed)): >128 µg/mL
- MIC ([1]; PAO200 (second column so headed)): >128 µg/mL

Structure (SMILES): C[C@@H](O)[C@H]1C(=O)N2C(C(=O)O)=C(SCCN=CN)C[C@H]12 [Imipenem, reference compound]
- MIC Alone (P. aeruginosa; P. aeruginosa PAO1, β-lactam antibiotic alone): 4 µg/mL
- MIC of IPM alone (P. aeruginosa; PA 259-96918): 64 µg/mL
- MIC of IPM alone (P. aeruginosa; PA 260-97103): 16 µg/mL
- MIC of IPM alone (P. aeruginosa; PA 262-101856): 32 µg/mL
- MIC of IPM alone (P. aeruginosa; PA 264-104354): 16 µg/mL
- MIC of IPM alone (P. aeruginosa; PA 86052): 32 µg/mL
- MIC of IPM alone (P. aeruginosa; PA 88949): 64 µg/mL
- MIC of IPM alone (P. aeruginosa; PA 91433): 8 µg/mL
- MIC of IPM alone (P. aeruginosa; PA 100036): 8 µg/mL
- MIC of IPM alone (P. aeruginosa; PA 101243): 8 µg/mL
- MIC of IPM alone (P. aeruginosa; PA 101885): 4 µg/mL
- MIC of IPM alone (P. aeruginosa; PA 107092): 64 µg/mL
- MIC of IPM alone (P. aeruginosa; PA 108590): 16 µg/mL
- MIC of IPM alone (P. aeruginosa; PA 109084): 16 µg/mL
- MIC of IPM alone (P. aeruginosa; PA 114228): 8 µg/mL
- MIC of IPM alone (P. aeruginosa; PAO1): 4 µg/mL
- MIC of IPM alone (P. aeruginosa; PAO200 (efflux-deficient)): 4 µg/mL
- MIC of IPM alone (P. aeruginosa; PAO750 (efflux-deficient)): 4 µg/mL
